Values after ≈ are worked out from the molar mass of the structure shown. Values joined by “and” are separate entries in the source; they are usually repeats but may differ in a detail not shown here. Identical values can stand only once. Like-named read-outs stand apart in the source and are kept apart here.
Experiments:
K. pneumoniae A-15130 = experiment: MIC, tube dilution, Klebsiella pneumoniae A15130; assay type: cell-based; conditions: overnight 37° C.; for MIC: Klebsiella pneumoniae, A15130, K. pneumoniae A15130, read-out: Minimum Inhibitory Concentration (M.I.C.); for Minimum Inhibitory Concentration (M.I.C.): K. pneumoniae A15130
From the text: (§1) Representative compounds of the present invention were subjected to in vitro antibiotic screening against a variety of microorganisms.

Pr. morganii A-15153 = experiment: MIC, tube dilution, Proteus morganii A15153; assay type: cell-based; conditions: overnight 37° C.; for MIC: Morganella morganii, A15153, Proteus morganii A15153, read-out: Minimum Inhibitory Concentration (M.I.C.)
From the text: as §1

Ser. marcescens A-20019 = experiment: MIC, tube dilution, Serratia marcescens A20019; assay type: cell-based; conditions: overnight 37° C.; for MIC: Serratia marcescens, A20019, Serratia marcescens A20019, read-out: Minimum Inhibitory Concentration (M.I.C.); for Minimum Inhibitory Concentration (M.I.C.): Serratia marcescens A20019
From the text: as §1

[1] = system: Staph. aureus (Meth-Res) A-15097; experiment: MIC, tube dilution, Staphylococcus aureus A15097 (Meth-Res); assay type: cell-based; conditions: overnight 37° C.; for MIC: Staphylococcus aureus
From the text: as §1

Str. pyogenes A-9604 = experiment: MIC, tube dilution, Streptococcus pyogenes A9604; assay type: cell-based; conditions: Streptococcus pyogenes, A9604, Str. pyogenes A9604; overnight 37° C., Nutrient Broth; read-out: Minimum Inhibitory Concentration (M.I.C.)
From the text: as §1

Ent. cloacae A-9659 = experiment: MIC, tube dilution, Enterobacter cloacae A9659; assay type: cell-based; conditions: overnight 37° C.; for MIC: Enterobacter cloacae, A9659, Enterobacter cloacae A9659, read-out: Minimum Inhibitory Concentration (M.I.C.); for Minimum Inhibitory Concentration (M.I.C.): Enterobacter cloacae A9659
From the text: as §1

Ps. aeruginosa A-9843A = experiment: MIC, tube dilution, Pseudomonas aeruginosa A9843A; assay type: cell-based; conditions: Pseudomonas aeruginosa, A9843A, read-out: Minimum Inhibitory Concentration (M.I.C.), Pseudomonas aeruginosa A9843A; overnight 37° C.
From the text: as §1

Str. faecalis A-20688 = experiment: MIC, tube dilution, Streptococcus faecalis A20688; assay type: cell-based; conditions: overnight 37° C.; for MIC: Enterococcus faecalis, A20688, Str. faecalis A20688, read-out: Minimum Inhibitory Concentration (M.I.C.)
From the text: as §1

Staph. aureus A-9537 = experiment: MIC, tube dilution, Staphylococcus aureus A9537; assay type: cell-based; conditions: overnight 37° C., Nutrient Broth; for MIC: Staphylococcus aureus, A9537, Staph. aureus A9537, read-out: Minimum Inhibitory Concentration (M.I.C.)
From the text: as §1

Str. pneumoniae A-9585 = experiment: MIC, tube dilution, Streptococcus pneumoniae A9585; assay type: cell-based; conditions: Streptococcus pneumoniae, A9585, Str. pneumoniae A9585; overnight 37° C., Nutrient Broth; read-out: Minimum Inhibitory Concentration (M.I.C.)
From the text: as §1

Ps. aeruginosa A-21213 = experiment: MIC, tube dilution, Pseudomonas aeruginosa A21213; assay type: cell-based; conditions: Pseudomonas aeruginosa A21213; overnight 37° C.; read-out: Minimum Inhibitory Concentration (M.I.C.)
From the text: as §1

[2] = system: Klebsiella species A20468; experiment: MIC, tube dilution, Klebsiella species A20468; assay type: cell-based; conditions: Klebsiella species (K. pneumoniae) A20468, overnight 37° C.; for MIC: read-out: Minimum Inhibitory Concentration (M.I.C.)
From the text: as §1

[3] = system: Staph. aureus (Pen-Res) A-9606; experiment: MIC, tube dilution, Staphylococcus aureus A9606 (Pen-Res); assay type: cell-based; conditions: overnight 37° C.; for MIC: Staphylococcus aureus
From the text: as §1

[4] = system: Providencia stuartii A21205; experiment: MIC, tube dilution, Providencia stuartii (Pr. rettgeri) A21205; assay type: cell-based; conditions: Providencia stuartii
From the text: as §1

Ent. cloacae A-9656 = experiment: MIC, tube dilution, Enterobacter cloacae A9656; assay type: cell-based; conditions: overnight 37° C., read-out: Minimum Inhibitory Concentration (M.I.C.)
From the text: as §1

E. coli A-20341-1 = experiment: MIC, tube dilution, Escherichia coli A20341-1; assay type: cell-based; conditions: E. coli A20341-1, overnight 37° C.; for MIC: Escherichia coli, A203411, read-out: Minimum Inhibitory Concentration (M.I.C.)
From the text: as §1

Pr. mirabilis A-9900 = experiment: MIC, tube dilution, Proteus mirabilis A9900; assay type: cell-based; conditions: overnight 37° C.; for MIC: Proteus mirabilis, A9900, Proteus mirabilis A9900, read-out: Minimum Inhibitory Concentration (M.I.C.); for Minimum Inhibitory Concentration (M.I.C.): Proteus mirabilis A9900
From the text: as §1

E. coli A-15119 = experiment: MIC, tube dilution, Escherichia coli A15119; assay type: cell-based; conditions: overnight 37° C.; for MIC: Escherichia coli, A15119, E. coli A15119, read-out: Minimum Inhibitory Concentration (M.I.C.); for Minimum Inhibitory Concentration (M.I.C.): E. coli A15119
From the text: as §1

Pr. vulgaris A-9716 = experiment: MIC, tube dilution, Proteus vulgaris / Proteus mirabilis A9716; assay type: cell-based, Proteus vulgaris (name changed to Proteus mirabilis); conditions: overnight 37° C.; for MIC: Proteus vulgaris; for Minimum Inhibitory Concentration (M.I.C.): Proteus vulgaris / Proteus mirabilis A9716
From the text: as §1

[5] = system: Staph. aureus A-9537 and 50% serum; experiment: MIC, tube dilution, Staph. aureus A9537 + 50% serum; assay type: cell-based, Staphylococcus aureus; conditions: overnight 37° C.; for MIC: Staphylococcus aureus, read-out: Minimum Inhibitory Concentration (M.I.C.)
From the text: as §1

S. aureus A9537 = experiment: In vivo protection of mice, lethal infection with S. aureus A9537; conditions: Staphylococcus aureus, A9537, im, read-out: PD50
Procedure: Representative compounds of the present invention were also tested in vivo in mice and their PD50 (dose of compound in mg/kg required to protect 50% of the treated mice against an otherwise lethal infection of a micro-organism) values determined with respect to the test organisms shown below.

[6] = Staph. aureus A15097 (Meth-Res), read-out: Minimum Inhibitory Concentration (M.I.C.)
[7] = Staph. aureus A9606 (Pen-Res), read-out: Minimum Inhibitory Concentration (M.I.C.)
[8] = A21205, Providencia stuartii (Pr. rettgeri) A21205, overnight 37° C., read-out: Minimum Inhibitory Concentration (M.I.C.)
[9] = A9716, Proteus vulgaris / Proteus mirabilis A9716, read-out: Minimum Inhibitory Concentration (M.I.C.)
[10] = A21205, read-out: Minimum Inhibitory Concentration (M.I.C.)

Compound	MIC (K. pneumoniae A-15130)	MIC (Pr. morganii A-15153)	MIC (Ser. marcescens A-20019)	MIC [1, 6]	MIC (Str. pyogenes A-9604)	MIC (Ent. cloacae A-9659)	MIC (Ps. aeruginosa A-9843A)	MIC (Str. faecalis A-20688)	MIC (Staph. aureus A-9537)	MIC (Str. pneumoniae A-9585)	MIC (Ps. aeruginosa A-21213)	MIC [2]	MIC [3, 7]	MIC [4, 8]	MIC (E. coli A-20341-1)	MIC (Pr. mirabilis A-9900)	MIC (E. coli A-15119)	MIC (Pr. vulgaris A-9716; [9])	MIC [5]	Minimum Inhibitory Concentration (M.I.C.) (K. pneumoniae A-15130)	also measured
CCC1=C(C(=O)O)N2C(=O)C[C@H]2S1 [Preparation 10, 2-Ethylpenem-3-carboxylic Acid]	8 µg/mL (≈ 40.2 µM)	8 µg/mL (≈ 40.2 µM)	4 µg/mL (≈ 20.1 µM)	0.5 µg/mL (≈ 2.51 µM)	0.5 µg/mL (≈ 2.51 µM)	16 µg/mL (≈ 80.3 µM)	> 125 µg/mL	32 µg/mL (≈ 161 µM)	0.13 µg/mL (≈ 0.653 µM)	0.03 µg/mL (≈ 0.151 µM)	125 µg/mL (≈ 627 µM)	> 125 µg/mL	0.5 µg/mL (≈ 2.51 µM)	4 µg/mL (≈ 20.1 µM)	125 µg/mL (≈ 627 µM)	4 µg/mL (≈ 20.1 µM)	4 µg/mL (≈ 20.1 µM)	4 µg/mL (≈ 20.1 µM)	16 µg/mL		MIC (Ent. cloacae A-9656; Enterobacter cloacae, A9656, Enterobacter cloacae A9656): 16 µg/mL (≈ 80.3 µM)
O=C([O-])C1=C(Cc2ccccc2)S[C@@H]2CC(=O)N12.[Na+] [Example 13, Sodium 2-Benzylpenem-3-carboxylate]																				63 µg/mL	Minimum Inhibitory Concentration (M.I.C.) (Pr. morganii A-15153; Proteus morganii A15153): 4 µg/mL; Minimum Inhibitory Concentration (M.I.C.) (Ser. marcescens A-20019): 32 µg/mL and 63 µg/mL; Minimum Inhibitory Concentration (M.I.C.) ([1]; Staph. aureus A15097 (Meth-Res)): 63 µg/mL; Minimum Inhibitory Concentration (M.I.C.) (Ent. cloacae A-9659): 63 µg/mL; Minimum Inhibitory Concentration (M.I.C.) (Str. faecalis A-20688; Str. faecalis A20688): 32 µg/mL; Minimum Inhibitory Concentration (M.I.C.) (Staph. aureus A-9537; Staph. aureus A9537): .13 µg/mL; Minimum Inhibitory Concentration (M.I.C.) [2]: 125 µg/mL; Minimum Inhibitory Concentration (M.I.C.) ([3]; Staph. aureus A9606 (Pen-Res)): 1 µg/mL; MIC [4, 10]: 4 µg/mL; ED50 (S. aureus A9537): 12.5 mg/kg; Minimum Inhibitory Concentration (M.I.C.) (E. coli A-20341-1): 125 µg/mL; Minimum Inhibitory Concentration (M.I.C.) (Pr. mirabilis A-9900): 2 µg/mL; Minimum Inhibitory Concentration (M.I.C.) (E. coli A-15119): 4 µg/mL; Minimum Inhibitory Concentration (M.I.C.) (Pr. vulgaris A-9716): 2 µg/mL; Minimum Inhibitory Concentration (M.I.C.) [5]: > 63 µg/mL
O=C(O)C1=C(COc2ccccc2)S[C@@H]2CC(=O)N12 [Preparation 12, 2-Phenoxymethylpenem-3-carboxylic Acid]	> 125 µg/mL	16 µg/mL (≈ 57.7 µM)	> 125 µg/mL	1 µg/mL (≈ 3.61 µM)	0.5 µg/mL (≈ 1.8 µM)	> 125 µg/mL	> 125 µg/mL	63 µg/mL (≈ 227 µM)	1 µg/mL (≈ 3.61 µM)	0.5 µg/mL (≈ 1.8 µM)	> 125 µg/mL	> 125 µg/mL	0.5 µg/mL (≈ 1.8 µM)	63 µg/mL (≈ 227 µM)	> 125 µg/mL	16 µg/mL (≈ 57.7 µM)	63 µg/mL (≈ 227 µM)	16 µg/mL (≈ 57.7 µM)	> 63 µg/mL		MIC (Ent. cloacae A-9656; Enterobacter cloacae A9656): > 125 µg/mL
O=C([O-])C1=C(COCc2ccccc2)S[C@@H]2CC(=O)N12.[Na+] [Preparation 14 (Na^+ Salt), Sodium 2-(Benzyloxymethyl)penem-3-carboxylate]	125 µg/mL	16 µg/mL	63 µg/mL		0.06 µg/mL	32 µg/mL	> 125 µg/mL	32 µg/mL	0.5 µg/mL	0.03 µg/mL	> 125 µg/mL	> 125 µg/mL			> 125 µg/mL	2 µg/mL	16 µg/mL		32 µg/mL	> 125 µg/mL	Minimum Inhibitory Concentration (M.I.C.) (Ser. marcescens A-20019): 125 µg/mL; MIC ([1]; read-out: Minimum Inhibitory Concentration (M.I.C.), Staph. aureus A15097 (Meth-Res)): > 125 µg/mL; Minimum Inhibitory Concentration (M.I.C.) (Ent. cloacae A-9659): 63 µg/mL; MIC ([3]; read-out: Minimum Inhibitory Concentration (M.I.C.), Staph. aureus A9606 (Pen-Res)): 32 µg/mL; MIC [4, 10]: 63 µg/mL; MIC (Ent. cloacae A-9656; Enterobacter cloacae A9656): 125 µg/mL; Minimum Inhibitory Concentration (M.I.C.) (Pr. mirabilis A-9900): 1 µg/mL; Minimum Inhibitory Concentration (M.I.C.) (E. coli A-15119): 8 µg/mL; Minimum Inhibitory Concentration (M.I.C.) (Pr. vulgaris A-9716): 2 µg/mL; MIC (Pr. vulgaris A-9716; A9716, read-out: Minimum Inhibitory Concentration (M.I.C.), Proteus vulgaris / Proteus mirabilis A9716): 4 µg/mL; Minimum Inhibitory Concentration (M.I.C.) [5]: 63 µg/mL

— patent US4272437A, “Antibacterial agents, and 4-thio azetidinone intermediates” (priority 1979, dated 1981)
